Patent US8329736B2, “Triazole compounds that modulate HSP90 activity” (Synta Pharmaceuticals, Corp., priority 2006, dated 2012)

Test system: Her2
Assay: Degradation of Her2 in BT-474 cells, Western blot (Method 1)
Assay type: cell-based, human
Settings: 0.5 μM, overnight
Experimental: Human high-Her2 breast carcinoma BT474 (HTB-20), SK-BR-3 (HTB-30) and MCF-7 breast carcinoma (HTB-22) from American Type Culture Collection, VA, USA were grown in Dulbecco's modified Eagle's medium with 4 mM L-glutamine and antibiotics (100 IU/ml penicillin and 100 ug/ml streptomycine; GibcoBRL). To obtain exponential cell growth, cells were trypsinized, counted and seeded at a cell density of 0.5×10^6 cells/ml regularly, every 3 days. All experiments were performed on day 1 after cell passage.
BT-474 cells are treated with 0.5 μM, 2 μM, or 5 μM of 17AAG (a positive control) or 0.5 μM, 2 μM, or 5 μM of a compound of the invention overnight in DMEM medium. After treatment, each cytoplasmic sample is prepared from 1×10^6 cells by incubation of cell lysis buffer (#9803, cell Signaling Technology) on ice for 10 minutes. The resulting supernatant used as the cytosol fractions is dissolved with sample buffer for SDS-PAGE and run on a SDS-PAGE gel, blotted onto a nitrocellulose membrane by using semi-dry transfer. Non-specific binding to nitrocellulose is blocked with 5% skim milk in TBS with 0.5% Tween at room temperature for 1 hour, then probed with anti-Her2/ErB2 mAb (rabbit IgG, #2242, Cell Signaling) and anti-Tubulin (T9026, Sigma) as housekeeping control protein. […]

SMILES: C=CCNC1=C2C[C@@H](C)C[C@H](OC)[C@H](O)[C@@H](C)/C=C(\C)[C@H](OC(N)=O)[C@@H](OC)/C=C\C=C(/C)C(=O)NC(=CC1=O)C2=O [Compound 17AAG, 17-allylamino-17-demethoxygeldanamycin]
- degradation of Her2: partial degradation of Her2
